Source: ChEMBL document CHEMBL1129214, “Synthesis and structure-activity relationship of C-3 quaternary ammonium cephalosporins exhibiting anti-MRSA activities” (1997)
Converted amounts (≈) assume the structure as drawn.

Experiments:
Format in all cases: functional
[1] = test system: Staphylococcus aureus; test: In vitro activity against MRSA (A27621; homogeneous strain) by standard broth dilution method
[2] = test system: Staphylococcus aureus; test: In vitro activity against MRSA (A27217; heterogeneous strain) by standard broth dilution method
[3] = test system: Staphylococcus aureus; test: In vitro activity against MSSA (A15090) by standard broth dilution method
[4] = test system: Staphylococcus aureus; test: In vitro activity against MRSA (A27226; homogeneous strain) by standard broth dilution method
[5] = test system: Staphylococcus aureus; test: In vitro activity against MRSA (A27223; homogeneous strain) by standard broth dilution method
[6] = test system: Staphylococcus aureus; test: In vitro activity against MSSA (A20241) by standard broth dilution method
[7] = In vivo inhibitory activity of compound against staphylococcus aureus; […]; conditions: read-out: PD50
[8] = In vivo inhibitory activity of compound against staphylococcus aureus; conditions: read-out: PD50
[9] = Staphylococcus aureus, read-out: MIC

In the case of `O=C(CSc1cc(Cl)ccc1Cl)N[C@@H]1C(=O)N2C(C(=O)[O-])=C(C[n+]3cccc4c3CCCC4)CS[C@H]12`, the MIC [1, 9] is reported as 2 µg/mL (≈ 3.54 µM), the MIC [2, 9] is reported as 1 µg/mL (≈ 1.77 µM) and the MIC [3, 9] is reported as 0.5 µg/mL (≈ 0.886 µM). For the same compound, the MIC [4, 9] was 1 µg/mL (≈ 1.77 µM), the MIC [5, 9] was 2 µg/mL (≈ 3.54 µM) and the MIC [6, 9] was 0.5 µg/mL (≈ 0.886 µM).
`NCC(=O)NC1C[N+]2(CC3=C(C(=O)[O-])N4C(=O)[C@@H](NC(=O)CSc5cc(Cl)ccc5Cl)[C@H]4SC3)CCC1CC2` (stereo partly drawn) showed an MIC [1, 9] of 4 µg/mL (≈ 6.51 µM), an MIC [2, 9] of 4 µg/mL (≈ 6.51 µM) and an MIC [3, 9] of 0.5 µg/mL (≈ 0.814 µM). The MIC [4, 9] was 2 µg/mL (≈ 3.25 µM), the MIC [5, 9] was 4 µg/mL (≈ 6.51 µM) and the MIC [6, 9] was 0.5 µg/mL (≈ 0.814 µM).
With `NC(=O)COc1cccc2c[n+](CC3=C(C(=O)[O-])N4C(=O)[C@@H](NC(=O)CSc5cc(Cl)ccc5Cl)[C@H]4SC3)ccc12` the MIC [1, 9] was 2 µg/mL (≈ 3.16 µM), the MIC [2, 9] was 2 µg/mL (≈ 3.16 µM) and the MIC [3, 9] was 1 µg/mL (≈ 1.58 µM). It also gave an MIC [4, 9] of 2 µg/mL (≈ 3.16 µM), an MIC [5, 9] of 2 µg/mL (≈ 3.16 µM) and an MIC [6, 9] of 1 µg/mL (≈ 1.58 µM).
With `O=C(CSc1cc(Cl)ccc1Cl)N[C@@H]1C(=O)N2C(C(=O)[O-])=C(C[N+]34CCC(CC3)CC4)CS[C@H]12` the MIC [1, 9] was 4 µg/mL (≈ 7.37 µM), the MIC [2, 9] was 2 µg/mL (≈ 3.69 µM) and the MIC [3, 9] was 1 µg/mL (≈ 1.84 µM). For the same compound, the MIC [4, 9] was 4 µg/mL (≈ 7.37 µM), the MIC [5, 9] was 2 µg/mL (≈ 3.69 µM) and the MIC [6, 9] was 1 µg/mL (≈ 1.84 µM).
With `NC(=O)c1ccc2n(cc[n+]2CC2=C(C(=O)[O-])N3C(=O)[C@@H](NC(=O)CSc4cc(Cl)ccc4Cl)[C@H]3SC2)c1` the MIC [1, 9] was 2 µg/mL (≈ 3.38 µM), the MIC [2, 9] was 2 µg/mL (≈ 3.38 µM) and the MIC [3, 9] was 0.5 µg/mL (≈ 0.844 µM). It also gave an MIC [4, 9] of 2 µg/mL (≈ 3.38 µM), an MIC [5, 9] of 2 µg/mL (≈ 3.38 µM) and an MIC [6, 9] of 1 µg/mL (≈ 1.69 µM).
With `O=C(CSc1cc(Cl)ccc1Cl)N[C@@H]1C(=O)N2C(C(=O)[O-])=C(C[n+]3ccn4ccccc43)CS[C@H]12` the MIC [1, 9] was 2 µg/mL (≈ 3.64 µM), the MIC [2, 9] was 2 µg/mL (≈ 3.64 µM) and the MIC [3, 9] was 0.25 µg/mL (≈ 0.455 µM). It also gave an MIC [4, 9] of 1 µg/mL (≈ 1.82 µM), an MIC [5, 9] of 4 µg/mL (≈ 7.28 µM) and an MIC [6, 9] of 0.5 µg/mL (≈ 0.91 µM).
In the case of `O=C(CSc1cc(Cl)ccc1Cl)N[C@@H]1C(=O)N2C(C(=O)[O-])=C(C[n+]3cccc4cc[nH]c43)CS[C@H]12`, the MIC [1, 9] is reported as 2 µg/mL (≈ 3.64 µM), the MIC [2, 9] is reported as 1 µg/mL (≈ 1.82 µM) and the MIC [3, 9] is reported as 1 µg/mL (≈ 1.82 µM). For the same compound, the MIC [4, 9] was 2 µg/mL (≈ 3.64 µM), the MIC [5, 9] was 2 µg/mL (≈ 3.64 µM) and the MIC [6, 9] was 1 µg/mL (≈ 1.82 µM).
For `O=C(C[N+]12CCN(CC1)CC2)N[C@@H]1C(=O)N2C(C(=O)[O-])=C(CSc3cc(Cl)ccc3Cl)CS[C@H]12`, the MIC [1, 9] was 128 µg/mL (≈ 236 µM), the MIC [2, 9] was 128 µg/mL (≈ 236 µM) and the MIC [3, 9] was 4 µg/mL (≈ 7.36 µM). For the same compound, the MIC [4, 9] was 128 µg/mL (≈ 236 µM), the MIC [5, 9] was 128 µg/mL (≈ 236 µM) and the MIC [6, 9] was 4 µg/mL (≈ 7.36 µM).
Work on `O=C(CSc1cc(Cl)ccc1Cl)N[C@@H]1C(=O)N2C(C(=O)[O-])=C(C[N+]34CCN(CC3)CC4)CS[C@H]12` yielded an ED50 [7] of 0.8 mg/kg, an MIC [1, 9] of 4 µg/mL (≈ 7.36 µM) and an MIC [2, 9] of 2 µg/mL (≈ 3.68 µM). The MIC [3, 9] was 0.25 µg/mL (≈ 0.46 µM), the MIC [4, 9] was 4 µg/mL (≈ 7.36 µM) and the MIC [5, 9] was 4 µg/mL (≈ 7.36 µM). It also gave an MIC [6, 9] of 0.5 µg/mL (≈ 0.92 µM).
For `O=C(CSc1cc(Cl)ccc1Cl)N[C@@H]1C(=O)N2C(C(=O)[O-])=C(C[n+]3cccc4[nH]cnc43)CS[C@H]12`, the MIC [1, 9] was 2 µg/mL (≈ 3.63 µM), the MIC [2, 9] was 1 µg/mL (≈ 1.82 µM) and the MIC [3, 9] was 0.125 µg/mL (≈ 0.227 µM). The MIC [4, 9] was 1 µg/mL (≈ 1.82 µM), the MIC [5, 9] was 2 µg/mL (≈ 3.63 µM) and the MIC [6, 9] was 0.125 µg/mL (≈ 0.227 µM).
With `O=C(CSc1cc(Cl)ccc1Cl)N[C@@H]1C(=O)N2C(C(=O)[O-])=C(C[N+]34CCC(CC3)C(O)C4)CS[C@H]12` (stereo partly drawn) the MIC [1, 9] was 1 µg/mL (≈ 1.79 µM), the MIC [2, 9] was 1 µg/mL (≈ 1.79 µM) and the MIC [3, 9] was 0.25 µg/mL (≈ 0.448 µM). For the same compound, the MIC [4, 9] was 1 µg/mL (≈ 1.79 µM), the MIC [5, 9] was 1 µg/mL (≈ 1.79 µM) and the MIC [6, 9] was 0.25 µg/mL (≈ 0.448 µM).
Work on `O=C(CSc1cc(Cl)ccc1Cl)N[C@@H]1C(=O)N2C(C(=O)[O-])=C(C[N+]34CN5CN(CN(C5)C3)C4)CS[C@H]12` yielded an MIC [1, 9] of 8 µg/mL (≈ 14 µM), an MIC [2, 9] of 4 µg/mL (≈ 7 µM) and an MIC [3, 9] of 0.125 µg/mL (≈ 0.219 µM). For the same compound, the MIC [4, 9] was 8 µg/mL (≈ 14 µM), the MIC [5, 9] was 8 µg/mL (≈ 14 µM) and the MIC [6, 9] was 0.125 µg/mL (≈ 0.219 µM).
Compound `O=C(CSc1cc(Cl)ccc1Cl)N[C@@H]1C(=O)N2C(C(=O)[O-])=C(C[n+]3ccc4c(O)cccc4c3)CS[C@H]12` has an MIC [1, 9] of 1 µg/mL (≈ 1.73 µM), an MIC [2, 9] of 1 µg/mL (≈ 1.73 µM) and an MIC [3, 9] of 1 µg/mL (≈ 1.73 µM). It also gave an MIC [4, 9] of 1 µg/mL (≈ 1.73 µM), an MIC [5, 9] of 1 µg/mL (≈ 1.73 µM) and an MIC [6, 9] of 1 µg/mL (≈ 1.73 µM).
Compound `O=C(CSc1cc(Cl)ccc1Cl)N[C@@H]1C(=O)N2C(C(=O)[O-])=C(C[n+]3ccc4ccccc4c3)CS[C@H]12` has an MIC [1, 9] of 2 µg/mL (≈ 3.57 µM), an MIC [2, 9] of 2 µg/mL (≈ 3.57 µM) and an MIC [3, 9] of 0.5 µg/mL (≈ 0.892 µM). It also gave an MIC [4, 9] of 2 µg/mL (≈ 3.57 µM), an MIC [5, 9] of 2 µg/mL (≈ 3.57 µM) and an MIC [6, 9] of 0.5 µg/mL (≈ 0.892 µM).
`C[N+]1(CC2=C(C(=O)[O-])N3C(=O)[C@@H](NC(=O)CSc4cc(Cl)ccc4Cl)[C@H]3SC2)C2CCCC1CC2` (stereo partly drawn) gave an MIC [1, 9] of 2 µg/mL (≈ 3.59 µM), an MIC [2, 9] of 2 µg/mL (≈ 3.59 µM) and an MIC [3, 9] of 0.25 µg/mL (≈ 0.449 µM). The MIC [4, 9] was 2 µg/mL (≈ 3.59 µM), the MIC [5, 9] was 2 µg/mL (≈ 3.59 µM) and the MIC [6, 9] was 0.25 µg/mL (≈ 0.449 µM).
With `O=C(CSc1cc(Cl)ccc1Cl)N[C@@H]1C(=O)N2C(C(=O)[O-])=C(C[n+]3ccc4c(c3)CCCC4)CS[C@H]12` the MIC [1, 9] was 4 µg/mL (≈ 7.09 µM), the MIC [2, 9] was 2 µg/mL (≈ 3.54 µM) and the MIC [3, 9] was 0.5 µg/mL (≈ 0.886 µM). It also gave an MIC [4, 9] of 2 µg/mL (≈ 3.54 µM), an MIC [5, 9] of 4 µg/mL (≈ 7.09 µM) and an MIC [6, 9] of 0.5 µg/mL (≈ 0.886 µM).
Compound `C[N+]1(CC2=C(C(=O)[O-])N3C(=O)[C@@H](NC(=O)CSc4cc(Cl)ccc4Cl)[C@H]3SC2)C2CCC1CC(=O)C2` (stereo partly drawn) has an MIC [1, 9] of 4 µg/mL (≈ 7.01 µM), an MIC [2, 9] of 2 µg/mL (≈ 3.51 µM) and an MIC [3, 9] of 0.5 µg/mL (≈ 0.876 µM). For the same compound, the MIC [4, 9] was 4 µg/mL (≈ 7.01 µM), the MIC [5, 9] was 4 µg/mL (≈ 7.01 µM) and the MIC [6, 9] was 0.5 µg/mL (≈ 0.876 µM).
`NCCC(=O)NC1C[N+]2(CC3=C(C(=O)[O-])N4C(=O)[C@@H](NC(=O)CSc5cc(Cl)ccc5Cl)[C@H]4SC3)CCC1CC2` (stereo partly drawn) gave an MIC [1, 9] of 4 µg/mL (≈ 6.36 µM), an MIC [2, 9] of 2 µg/mL (≈ 3.18 µM) and an MIC [3, 9] of 1 µg/mL (≈ 1.59 µM). It also gave an MIC [4, 9] of 4 µg/mL (≈ 6.36 µM), an MIC [5, 9] of 4 µg/mL (≈ 6.36 µM) and an MIC [6, 9] of 1 µg/mL (≈ 1.59 µM).
With `C[N+]1(CC2=C(C(=O)[O-])N3C(=O)[C@@H](NC(=O)CSc4cc(Cl)ccc4Cl)[C@H]3SC2)[C@@H]2CC[C@H]1C[C@@H](O)C2` (stereo in doubt; 6r) the ED50 [7] was 0.8 mg/kg, the MIC [1, 9] was 2 µg/mL (≈ 3.49 µM) and the MIC [2, 9] was 1 µg/mL (≈ 1.75 µM). The MIC [3, 9] was 0.25 µg/mL (≈ 0.437 µM), the MIC [4, 9] was 2 µg/mL (≈ 3.49 µM) and the MIC [5, 9] was 2 µg/mL (≈ 3.49 µM). It also gave an MIC [6, 9] of 0.25 µg/mL (≈ 0.437 µM).
Work on `C[N+]1(CC2=C(C(=O)[O-])N3C(=O)[C@@H](NC(=O)CSc4cc(Cl)ccc4Cl)[C@H]3SC2)[C@@H]2CC[C@H]1C[C@@H](O)C2` (stereo in doubt; 6s) yielded an MIC [1] of 2 µg/mL (≈ 3.49 µM), an MIC [2] of 1 µg/mL (≈ 1.75 µM) and an MIC [3] of 0.125 µg/mL (≈ 0.218 µM). For the same compound, the MIC [4] was 4 µg/mL (≈ 6.99 µM), the MIC [5] was 4 µg/mL (≈ 6.99 µM) and the ED50 [8] was 9.5 mg/kg. For the same compound, the MIC [6] was 0.125 µg/mL (≈ 0.218 µM).
